Measurements from ChEMBL document CHEMBL3108775, “Rescuing biological activity from synthetic phakellistatin 19” (J Med Chem, 2013).
pIC50: −log10 of the molar value. Numbered stars: 1 amine (or outer) side, 2 acyl side, 3 side chain; on linkers, the order of the positions; unused ones are H or OH. Square brackets hold non-standard residues; d marks the D form. Peptide text beside a SMILES is read from it. X1 = CC1(C)SC[C@@H](C(=O)[*:2])N1[*:1]

Legend:
[1] = test system: A549; experiment: Cytotoxicity against human A549 cells by MTT assay; type: functional
[2] = test system: HT-29; experiment: Cytotoxicity against human HT-29 cells by MTT assay; type: functional
[3] = test system: MDA-MB-231; experiment: Cytotoxicity against human MDA-MB-231 cells by MTT assay; type: functional
[4] = test system: HT-29; experiment: Antimitotic activity against human HT-29 cells; type: functional, cell-based
[5] = test system: A549; experiment: Antimitotic activity against human A549 cells; type: functional, cell-based
[6] = test system: MDA-MB-231; experiment: Antimitotic activity against human MDA-MB-231 cells; type: functional, cell-based

For `CC[C@H](C)[C@@H]1NC(=O)[C@@H]2CCCN2C(=O)[C@H]([C@@H](C)O)NC(=O)[C@H](CC(C)C)NC(=O)[C@@H]2CCCN2C(=O)[C@H](Cc2ccccc2)NC(=O)[C@H](Cc2c[nH]c3ccccc23)NC(=O)[C@@H]2CSC(C)(C)N2C1=O` (cyclo(FPLTPI[X1]W)), the GI50 [1] was over 10 µM, the LC50 [1] was over 10 µM and the TGI [1] was over 10 µM. For the same molecule, the GI50 [2] was over 10000 nM, the LC50 [2] was over 10 µM and the TGI [2] was over 10000 nM. For the same molecule, the GI50 [3] was over 10000 nM, the LC50 [3] was over 10 µM and the TGI [3] was over 10 µM.
`CC[C@H](C)[C@@H]1NC(=O)[C@@H]2CSC(C)(C)N2C(=O)[C@H]([C@@H](C)O)NC(=O)[C@H](CC(C)C)NC(=O)[C@@H]2CCCN2C(=O)[C@H](Cc2ccccc2)NC(=O)[C@H](Cc2c[nH]c3ccccc23)NC(=O)[C@@H]2CCCN2C1=O` (cyclo(FPLT[X1]IPW)) showed a GI50 [1] of over 10 µM, an LC50 [1] of over 10 µM and a TGI [1] of over 10 µM. It also gave a GI50 [2] of 4010 nM, an LC50 [2] of 4.61 µM and a TGI [2] of 4210 nM. For the same molecule, the GI50 [3] was 2700 nM, the LC50 [3] was 6.01 µM and the TGI [3] was 4.11 µM.
`CC[C@H](C)[C@@H]1NC(=O)[C@@H]2CSC(C)(C)N2C(=O)[C@H]([C@@H](C)O)NC(=O)[C@H](CC(C)C)NC(=O)[C@@H]2CCCN2C(=O)[C@H](Cc2ccccc2)NC(=O)[C@H](Cc2c[nH]c3ccccc23)NC(=O)[C@@H]2CSC(C)(C)N2C1=O` (cyclo(FPLT[X1]I[X1]W)) showed a GI50 [1] of 3.64 µM, an LC50 [1] of over 9.58 µM and a TGI [1] of over 9.58 µM. It also gave a GI50 [2] of 1820 nM, an LC50 [2] of 2.39 µM and a TGI [2] of 2110 nM. The GI50 [3] was 2200 nM, the LC50 [3] was 5.08 µM and the TGI [3] was 3.35 µM.
For `CC[C@H](C)[C@@H]1NC(=O)[C@@H]2CCCN2C(=O)[C@H]([C@@H](C)O)NC(=O)[C@H](CC(C)C)NC(=O)[C@@H]2CSC(C)(C)N2C(=O)[C@H](Cc2ccccc2)NC(=O)[C@H](Cc2c[nH]c3ccccc23)NC(=O)[C@@H]2CCCN2C1=O` (cyclo(F[X1]LTPIPW)), the GI50 [1] was over 10 µM, the LC50 [1] was over 10 µM and the TGI [1] was over 10 µM. It also gave a GI50 [2] of 5710 nM, an LC50 [2] of over 10 µM and a TGI [2] of over 10000 nM. For the same molecule, the GI50 [3] was 6110 nM, the LC50 [3] was over 10 µM and the TGI [3] was over 10 µM.
For `CC[C@H](C)[C@@H]1NC(=O)[C@@H]2CCCN2C(=O)[C@H]([C@@H](C)O)NC(=O)[C@H](CC(C)C)NC(=O)[C@@H]2CSC(C)(C)N2C(=O)[C@H](Cc2ccccc2)NC(=O)[C@H](Cc2c[nH]c3ccccc23)NC(=O)[C@@H]2CSC(C)(C)N2C1=O` (cyclo(F[X1]LTPI[X1]W)), the GI50 [1] was over 9.58 µM, the LC50 [1] was over 9.58 µM and the TGI [1] was over 9.58 µM. For the same molecule, the GI50 [2] was 3160 nM, the LC50 [2] was over 9.58 µM and the TGI [2] was 6610 nM. For the same molecule, the GI50 [3] was 5650 nM, the LC50 [3] was over 9.58 µM and the TGI [3] was over 9.58 µM.
In the case of `CC[C@H](C)[C@@H]1NC(=O)[C@@H]2CSC(C)(C)N2C(=O)[C@H]([C@@H](C)O)NC(=O)[C@H](CC(C)C)NC(=O)[C@@H]2CSC(C)(C)N2C(=O)[C@H](Cc2ccccc2)NC(=O)[C@H](Cc2c[nH]c3ccccc23)NC(=O)[C@@H]2CCCN2C1=O` (cyclo(F[X1]LT[X1]IPW)), the GI50 [1] was 3.45 µM, the LC50 [1] was over 9.58 µM and the TGI [1] was 7.85 µM. For the same molecule, the GI50 [2] was 1820 nM, the LC50 [2] was 2.68 µM and the TGI [2] was 2200 nM. The GI50 [3] was 1720 nM, the LC50 [3] was 2.3 µM and the TGI [3] was 2.01 µM.
For `CC[C@H](C)[C@@H]1NC(=O)[C@@H]2CSC(C)(C)N2C(=O)[C@H]([C@@H](C)O)NC(=O)[C@H](CC(C)C)NC(=O)[C@@H]2CSC(C)(C)N2C(=O)[C@H](Cc2ccccc2)NC(=O)[C@H](Cc2c[nH]c3ccccc23)NC(=O)[C@@H]2CSC(C)(C)N2C1=O` (cyclo(F[X1]LT[X1]I[X1]W)), the GI50 [1] was 1.47 µM, the LC50 [1] was 1.83 µM and the TGI [1] was 1.65 µM. It also gave a GI50 [2] of 1380 nM, an LC50 [2] of 2.11 µM and a TGI [2] of 1740 nM. For the same molecule, the GI50 [3] was 1650 nM, the LC50 [3] was 2.2 µM and the TGI [3] was 1.93 µM.
`CC[C@H](C)[C@@H]1NC(=O)[C@@H]2CCCN2C(=O)[C@H]([C@@H](C)O)NC(=O)[C@H](CC(C)C)NC(=O)[C@@H]2CCCN2C(=O)[C@H](Cc2ccccc2)NC(=O)[C@H](Cc2c[nH]c3ccccc23)NC(=O)[C@@H]2CCCN2C1=O` [STYLISSAMIDE X] (cyclo(FPLTPIPW)) showed a GI50 [1] of 0.44 µM, an LC50 [1] of over 10.5 µM and a TGI [1] of 1.16 µM. It also gave a pIC50 [4] of 7.08, a GI50 [2] of 462 nM and an LC50 [2] of over 10.5 µM. It also gave a TGI [2] of 672 nM, a pIC50 [5] of 7.08 and a pIC50 [6] of 7.08. The GI50 [3] was 515 nM, the LC50 [3] was over 10.5 µM and the TGI [3] was 1.47 µM.
